Measurements from ChEMBL document CHEMBL1201862, “PubChem BioAssay data set” (2004).
Where “and” joins values, the source holds several entries; their conditions need not be identical. Equal entries are not always repeated. Calls of active or inactive are those of the source.

Columns and labels:
[1] = molecular target: T1, Microphthalmia-associated transcription factor (Homo sapiens, UniProt O75030); assay: TRPM1 promoter luciferase signal decrease, dose response, MITF inhibitor project, cell-based, SK-MEL-5, cherry-picked, set 3 (AID 493073); assay type: functional
T1 sequence (O75030 whole entry): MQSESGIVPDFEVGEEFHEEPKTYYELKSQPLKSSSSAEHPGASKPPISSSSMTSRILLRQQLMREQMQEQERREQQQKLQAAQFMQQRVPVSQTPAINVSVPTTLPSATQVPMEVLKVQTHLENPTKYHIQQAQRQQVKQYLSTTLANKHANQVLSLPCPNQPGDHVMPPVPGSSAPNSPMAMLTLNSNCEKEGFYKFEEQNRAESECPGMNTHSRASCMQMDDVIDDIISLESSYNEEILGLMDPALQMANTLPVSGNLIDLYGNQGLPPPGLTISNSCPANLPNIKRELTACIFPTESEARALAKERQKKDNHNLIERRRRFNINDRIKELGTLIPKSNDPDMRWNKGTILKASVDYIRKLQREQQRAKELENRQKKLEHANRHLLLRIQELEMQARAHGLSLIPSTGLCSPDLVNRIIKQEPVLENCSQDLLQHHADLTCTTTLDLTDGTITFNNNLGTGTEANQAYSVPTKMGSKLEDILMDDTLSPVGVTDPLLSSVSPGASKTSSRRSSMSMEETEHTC

[2] = cytotoxicity in HEK-293T cells, dose response, cytotoxicity control for TCR NF-kB inhibitor project, luminescence, T-cell screen hits (AID 489026); assay type: functional, cell-based;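 also: cells exposed to compound about 14 hours before the viability readout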
[3] = test system: HEK293; assay: cytotoxicity in HEK293T NF-kB-Luc cells, SAR follow-up, cytotoxicity control for NF-kB activator project, cell-based, resazurin fluorescence (AID 493251); assay type: functional; settings: Homo sapiens
[4] = test system: Jurkat; assay: SAR Analysis of small molecule inhibitors of T-cell specific antigen receptor-induced NF-kB activation in a Jurkat cell line using a luminescence assay - Set 2. [Related pubchem assays (depositor defined):AID435003, AID435012, AID465]; assay type: functional, cell-based; settings: Homo sapiens
[5] = test system: HEK293; assay: SAR Analysis of small molecule inhibitors of T-cell specific antigen receptor-induced NF-kB activation in a HEK-293T cell line using a luminescence assay - Set 2. [Related pubchem assays (depositor defined):AID435003, AID435012, AID489026]; assay type: functional, cell-based; settings: Homo sapiens
[6] = luciferase signal loss, tTA control fusion, HeLa F-luc tTA cells, dry powder, counter-screen for HIV Env fusion inhibitor project, dose response (AID 687021); assay type: functional, cell-based
[7] = inhibitors of SNCA 5'UTR-driven reporter translation, confirmation, H4 neuroglioma cells, luminescence (AID 1988); assay type: functional, cell-based
[8] = CEM21 cell cytotoxicity, dose response, cytotoxicity control, plate reader, dry powder (AID 687026); assay type: functional, cell-based
[9] = inhibitors of firefly luciferase expression or activity, dose response, H4 neuroglioma cells, luminescence (AID 1990); assay type: functional, cell-based
[10] = test system: A-375; assay: MITF: Counter assay: A375 proliferation Measured in Cell-Based System Using Plate Reader - 2084-03_Inhibitor_Dose_DryPowder_Activity. [Related pubchem assays (depositor defined):AID488944]; assay type: functional; settings: Homo sapiens
[11] = inhibitors of HIV Env-driven cell fusion, dose response, cherry-pick (AID 652057); assay type: functional, cell-based
[12] = test system: Jurkat; assay: SAR Analysis of small molecule inhibitors of […] specific antigen receptor-induced NF-kB activation in a Jurkat cell line using a luminescence assay - Set 3. [Related pubchem assays (depositor defined):AID435022, AID435025, AID465]; assay type: functional, cell-based; settings: Homo sapiens
[13] = inhibitors of clade B AD8 Env fusion, dose response, cell-based, cherry-pick (AID 652062); assay type: functional;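 also: luciferase signal from cell-cell fusion driven by HIV-1 clade B AD8 Env; potency is for inhibitors of fusion seen as a drop in luminescence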
[14] = test system: HEK293; assay: SAR Analysis of small molecule inhibitors of B-cell specific antigen receptor-induced NF-kB activation in a HEK-293T cell line using a luminescence assay - Set 2. [Related pubchem assays (depositor defined):AID435022, AID435025, AID489021]; assay type: functional, cell-based; settings: Homo sapiens
[15] = test system: A-375; assay: A375 melanoma cell viability reduction, dose response, counter-screen for MITF modulator project, cherry-pick samples, set 2 (AID 540335); assay type: functional, cell-based; settings: Homo sapiens
[16] = cytotoxicity in HEK-293T cells, dose response, cytotoxicity control for BCR NF-kB inhibitor project, luminescence, B-cell screen hits (AID 489021); assay type: functional, cell-based;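 also: HEK-293T cells carrying an NF-kB luciferase reporter; cells exposed to compound for about 14 hours before viability readout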
[17] = Luminescence-based counterscreen assay for KLF5 inhibitors: dose response cell-based high throughput screening assay to identify cytotoxic compounds using the IEC-6 intestinal epithelial cell line. [Related pubchem assays: 1700 (Primary screen.), 1834 (Confirmation screen.), 1858 (Summary AID.), 1905 (Counterscreen.)]; assay type: functional
[18] = Luminescence Cell-Based Dose Response HTS to Identify Inhibitors of 5'UTR Stem-Loop Driven Prion Protein mRNA Translation in H4 Neuroglioblastoma Cells. [Related pubchem assays: 1827 (Project Summary), 1813 (Primary HTS)]; assay type: functional
[19] = ZM109 Env clade C HIV-1 fusion inhibitors, dose response, HeLa effector, CEM target cells, luciferase, cherry-pick (AID 652058); assay type: functional, cell-based
[20] = molecular target: Cytochrome P450 2C19 (Homo sapiens, UniProt P33261); assay: Cytochrome panel assay with activity outcomes. Panel member name: p450-cyp2c19 Compounds with AC50 equal or less than 10 uM are considered active; assay type: functional; settings: read-out: AC50
[21] = growth induction of Burl-1 ts yeast mutant, dose response, counter-screen for SUMOylation pathway inhibitor project, whole organism, S. cerevisiae, luminescence (AID 463199); assay type: functional
[22] = molecular target: T2, Cytochrome P450 2D6 (Homo sapiens, UniProt P10635);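 also: CYP2D6 member of a cytochrome P450 panel assay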
[23] = molecular target: Hexokinase-1 (Homo sapiens, UniProt P19367); assay: HK1 enzyme inhibition by HKDC1 hits, SAR follow-up, selectivity assay for HKDC1 inhibitor project, biochemical, set 2, resazurin fluorescence coupled readout (AID 588356); assay type: functional
[24] = molecular target: T3, Hexokinase HKDC1 (Homo sapiens, UniProt Q2TB90); assay: HKDC1 hexokinase inhibitors, SAR follow-up, biochemical, set 2 (AID 588355); assay type: functional
T3 sequence (Q2TB90 whole entry): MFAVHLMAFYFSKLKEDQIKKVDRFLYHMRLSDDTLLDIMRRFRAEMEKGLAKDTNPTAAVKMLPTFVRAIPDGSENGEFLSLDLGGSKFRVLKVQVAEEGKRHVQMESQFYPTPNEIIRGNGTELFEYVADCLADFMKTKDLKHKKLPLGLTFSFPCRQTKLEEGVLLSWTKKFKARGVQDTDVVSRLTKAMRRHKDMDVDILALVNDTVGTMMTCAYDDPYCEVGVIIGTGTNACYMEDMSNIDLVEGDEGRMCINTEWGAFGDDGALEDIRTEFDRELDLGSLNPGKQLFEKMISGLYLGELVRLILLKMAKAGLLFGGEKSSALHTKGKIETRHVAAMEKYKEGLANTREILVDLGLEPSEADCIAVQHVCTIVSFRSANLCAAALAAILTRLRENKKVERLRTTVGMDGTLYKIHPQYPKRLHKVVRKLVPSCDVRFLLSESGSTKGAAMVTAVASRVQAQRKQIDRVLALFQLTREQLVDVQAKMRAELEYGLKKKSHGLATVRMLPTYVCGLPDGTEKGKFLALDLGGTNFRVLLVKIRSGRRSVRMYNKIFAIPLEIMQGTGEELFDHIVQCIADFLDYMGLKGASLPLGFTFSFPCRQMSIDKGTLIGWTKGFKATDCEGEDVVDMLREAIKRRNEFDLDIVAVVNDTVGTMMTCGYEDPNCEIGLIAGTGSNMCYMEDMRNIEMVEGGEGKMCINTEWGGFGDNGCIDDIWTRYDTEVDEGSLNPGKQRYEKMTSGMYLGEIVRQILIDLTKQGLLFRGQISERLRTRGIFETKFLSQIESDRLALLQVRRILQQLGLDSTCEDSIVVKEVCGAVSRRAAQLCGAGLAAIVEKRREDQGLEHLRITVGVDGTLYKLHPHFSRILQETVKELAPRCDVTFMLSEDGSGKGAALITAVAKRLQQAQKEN

[25] = growth suppression of beta-catenin-knockout colon cells, dose response, cell-based, HCT116, human colon tumor (AID 1045); assay type: functional;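 also: HCT116 colon tumor cells with beta catenin knocked out; cells exposed to compound for 60 hours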
[26] = molecular target: T4, Apoptotic protease-activating factor 1 (Homo sapiens, UniProt O14727); assay: activation of Apaf-1 mediated apoptosis – fluorescent, uHTS hits, dose response (AID 588554); assay type: functional
T4 sequence (O14727 whole entry): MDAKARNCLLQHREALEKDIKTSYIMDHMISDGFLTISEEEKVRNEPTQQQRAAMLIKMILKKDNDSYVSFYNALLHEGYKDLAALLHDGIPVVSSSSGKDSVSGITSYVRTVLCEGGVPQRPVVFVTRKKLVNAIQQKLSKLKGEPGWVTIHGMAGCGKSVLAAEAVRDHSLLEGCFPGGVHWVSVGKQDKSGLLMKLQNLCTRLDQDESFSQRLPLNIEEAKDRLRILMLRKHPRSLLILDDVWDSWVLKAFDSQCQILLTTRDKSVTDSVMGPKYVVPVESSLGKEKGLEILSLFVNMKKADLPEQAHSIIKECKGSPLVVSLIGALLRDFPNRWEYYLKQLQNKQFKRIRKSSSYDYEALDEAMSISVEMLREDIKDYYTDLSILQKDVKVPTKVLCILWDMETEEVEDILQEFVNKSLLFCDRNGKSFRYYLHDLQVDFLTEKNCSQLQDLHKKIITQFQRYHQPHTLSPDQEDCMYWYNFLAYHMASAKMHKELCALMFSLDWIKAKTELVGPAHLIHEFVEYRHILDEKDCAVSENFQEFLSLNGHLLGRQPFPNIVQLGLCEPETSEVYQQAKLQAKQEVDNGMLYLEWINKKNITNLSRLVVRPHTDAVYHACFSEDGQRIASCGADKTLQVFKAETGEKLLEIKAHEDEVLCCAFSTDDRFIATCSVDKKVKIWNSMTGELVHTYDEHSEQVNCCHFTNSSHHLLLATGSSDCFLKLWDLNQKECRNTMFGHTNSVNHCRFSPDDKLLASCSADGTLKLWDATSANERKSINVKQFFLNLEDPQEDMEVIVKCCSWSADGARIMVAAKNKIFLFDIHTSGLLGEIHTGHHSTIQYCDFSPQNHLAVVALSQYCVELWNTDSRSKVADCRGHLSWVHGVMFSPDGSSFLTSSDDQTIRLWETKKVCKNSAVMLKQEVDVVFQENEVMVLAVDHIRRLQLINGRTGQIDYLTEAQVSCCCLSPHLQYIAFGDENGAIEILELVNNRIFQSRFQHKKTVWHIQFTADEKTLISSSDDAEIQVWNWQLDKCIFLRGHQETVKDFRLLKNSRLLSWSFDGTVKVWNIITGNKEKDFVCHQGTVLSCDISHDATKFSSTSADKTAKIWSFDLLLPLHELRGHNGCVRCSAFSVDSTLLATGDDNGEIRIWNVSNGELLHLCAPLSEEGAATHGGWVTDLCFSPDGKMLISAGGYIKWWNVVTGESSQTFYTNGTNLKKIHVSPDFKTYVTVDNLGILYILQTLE

[27] = growth suppression of PTEN-null colon cells, dose response, cell-based, HCT116 PTEN knockout (AID 1047); assay type: functional;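 also: HCT116 colon tumor cells with PTEN knocked out; cells exposed to compound for 60 hours before readout; potency for loss of cell viability measured by luminescence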
[28] = molecular target: T2, Cytochrome P450 2D6; remark: listed apart in the source
[29] = molecular target: T5, Cytochrome P450 1A2 (Homo sapiens, UniProt P05177);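 also: PubChem cytochrome P450 panel assay, CYP1A2 panel member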
T5 sequence (P05177 whole entry): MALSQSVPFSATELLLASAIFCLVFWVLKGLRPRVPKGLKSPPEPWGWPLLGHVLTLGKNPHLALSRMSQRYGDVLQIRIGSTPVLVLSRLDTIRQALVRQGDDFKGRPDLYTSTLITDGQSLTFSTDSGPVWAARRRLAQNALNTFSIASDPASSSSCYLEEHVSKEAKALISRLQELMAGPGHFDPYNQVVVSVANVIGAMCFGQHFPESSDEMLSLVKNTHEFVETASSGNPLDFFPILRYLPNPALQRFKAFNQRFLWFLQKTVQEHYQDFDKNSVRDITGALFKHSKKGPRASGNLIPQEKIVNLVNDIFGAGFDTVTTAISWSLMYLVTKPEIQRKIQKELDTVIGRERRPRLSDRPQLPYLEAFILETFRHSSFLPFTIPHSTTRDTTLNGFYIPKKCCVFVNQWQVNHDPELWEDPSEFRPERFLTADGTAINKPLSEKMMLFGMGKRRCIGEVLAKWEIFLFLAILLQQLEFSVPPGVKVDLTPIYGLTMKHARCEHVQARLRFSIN

T2 sequence (P10635 whole entry): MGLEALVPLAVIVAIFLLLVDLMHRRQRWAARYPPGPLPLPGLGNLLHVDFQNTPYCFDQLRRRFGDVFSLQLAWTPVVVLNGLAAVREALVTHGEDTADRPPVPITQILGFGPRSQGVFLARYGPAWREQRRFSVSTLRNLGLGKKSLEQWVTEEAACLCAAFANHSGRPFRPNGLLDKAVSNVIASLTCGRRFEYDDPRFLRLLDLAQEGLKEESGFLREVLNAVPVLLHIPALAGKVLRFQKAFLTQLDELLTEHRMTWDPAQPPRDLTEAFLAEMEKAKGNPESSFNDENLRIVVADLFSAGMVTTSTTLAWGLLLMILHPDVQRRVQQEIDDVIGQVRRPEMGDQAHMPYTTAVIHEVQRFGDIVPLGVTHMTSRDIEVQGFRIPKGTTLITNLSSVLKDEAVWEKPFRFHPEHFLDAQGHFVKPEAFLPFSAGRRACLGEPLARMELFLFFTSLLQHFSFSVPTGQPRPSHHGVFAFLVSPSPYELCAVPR
Cytochrome P450 2C19, sequence (P33261 whole entry): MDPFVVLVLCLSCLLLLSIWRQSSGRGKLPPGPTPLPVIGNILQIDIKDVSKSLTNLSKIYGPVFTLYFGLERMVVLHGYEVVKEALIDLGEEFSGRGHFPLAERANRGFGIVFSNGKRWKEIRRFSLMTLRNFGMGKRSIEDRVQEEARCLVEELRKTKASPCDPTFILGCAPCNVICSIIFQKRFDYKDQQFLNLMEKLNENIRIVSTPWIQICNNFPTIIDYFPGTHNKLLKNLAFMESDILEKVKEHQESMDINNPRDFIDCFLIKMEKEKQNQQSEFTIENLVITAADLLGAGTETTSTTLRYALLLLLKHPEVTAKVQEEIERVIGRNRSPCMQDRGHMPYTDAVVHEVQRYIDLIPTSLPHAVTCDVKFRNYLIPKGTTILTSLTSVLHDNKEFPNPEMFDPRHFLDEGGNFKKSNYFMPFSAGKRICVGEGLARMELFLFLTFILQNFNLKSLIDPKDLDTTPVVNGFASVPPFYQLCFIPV
Hexokinase-1, sequence (P19367 whole entry): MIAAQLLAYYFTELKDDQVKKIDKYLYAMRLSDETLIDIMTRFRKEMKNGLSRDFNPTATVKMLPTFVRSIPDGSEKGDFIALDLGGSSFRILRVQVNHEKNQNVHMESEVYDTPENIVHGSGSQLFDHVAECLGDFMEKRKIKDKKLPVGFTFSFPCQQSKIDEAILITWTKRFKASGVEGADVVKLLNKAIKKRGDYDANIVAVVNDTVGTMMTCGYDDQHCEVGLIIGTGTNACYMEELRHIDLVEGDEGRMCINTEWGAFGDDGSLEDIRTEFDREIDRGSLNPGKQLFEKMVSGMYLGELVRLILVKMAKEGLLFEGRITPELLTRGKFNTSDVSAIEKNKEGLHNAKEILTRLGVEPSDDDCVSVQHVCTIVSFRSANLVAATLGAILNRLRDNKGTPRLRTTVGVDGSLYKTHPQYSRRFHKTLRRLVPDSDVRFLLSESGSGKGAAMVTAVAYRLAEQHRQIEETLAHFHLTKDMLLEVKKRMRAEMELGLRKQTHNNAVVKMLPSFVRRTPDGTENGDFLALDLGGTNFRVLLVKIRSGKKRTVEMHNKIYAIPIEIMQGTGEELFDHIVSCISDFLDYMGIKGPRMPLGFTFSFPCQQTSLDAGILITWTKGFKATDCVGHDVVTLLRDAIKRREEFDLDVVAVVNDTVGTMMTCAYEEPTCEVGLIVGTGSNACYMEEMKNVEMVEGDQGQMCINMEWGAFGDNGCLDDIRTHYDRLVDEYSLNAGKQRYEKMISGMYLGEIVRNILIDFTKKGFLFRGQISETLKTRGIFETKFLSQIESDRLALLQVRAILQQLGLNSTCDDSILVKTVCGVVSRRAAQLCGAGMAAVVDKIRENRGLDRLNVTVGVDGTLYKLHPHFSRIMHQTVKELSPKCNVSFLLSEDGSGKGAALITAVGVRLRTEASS

## Cc1cc(C)cc(NC(=O)c2ccc([N+](=O)[O-])o2)c1
[1]
  AC50: 16.6 µM (active)
[2]
  IC50: > 80 µM (inactive)
[3]
  IC50: 43.4 µM (inactive)
[4]
  IC50: 850 nM (active)
[5]
  IC50: 21.8 µM (inactive)

## CC(C)(C)c1ccc(-c2noc(CCC(=O)NCC3CCCO3)n2)cc1 (configuration not stated)
[6]
  AC50: 67.1 µM (active)
[7]
  EC50: 152 nM (active)
[8]
  AC50: > 70 µM (inactive)
[9]
  EC50: < 100 nM (active)
[10]
  AC50: > 35 µM (active)
[1]
  AC50: 0.275 µM (active)
[11]
  AC50: 359 nM (active)
[12]
  IC50: 13.4 µM (active)
[3]
  IC50: 70.9 µM (inactive)
[13]
  AC50: < 260 nM (active)
[14]
  IC50: 1.54 µM (active)
[15]
  AC50: > 35 µM (active)
[16]
  IC50: > 80 µM (inactive)
[17]
  IC50: > 39.8 µM (not active)
[18]
  EC50: 9.11 µM (active)
[19]
  AC50: 293 nM (active)

## Cc1ccc(S(=O)(=O)N2CCOCC2)cc1NC(=O)COC(=O)CCC(=O)c1cccs1
[20]
  AC50: 39.8 µM (inconclusive)
[21]
  AC50: 87.5 µM (active)
[22]
  AC50: 31.6 µM (inconclusive)

## COc1cc2c(cc1OC)-c1cc(NCCN(C)C)nc(=O)n1CC2
[23]
  IC50: > 80 µM (inactive)
[24]
  IC50: > 80 µM (inactive)

## CCOc1ccc(C(=O)/C=C/Nc2ccc(S(=O)(=O)N=C(N)N)cc2)cc1
[25]
  EC50: 21.8 µM (active)
[26]
  EC50: 6.28 µM (active)
[27]
  EC50: 16.3 µM (active)

## Cc1ncc([N+](=O)[O-])n1CC(C)O (configuration not stated) [SECNIDAZOLE]
[28]
  AC50: inconclusive

## Cc1cccc(C)c1N=C1NCCCS1 [XYLAZINE]
[29]
  AC50: inactive
[22]
  AC50: 39.8 µM (inconclusive) and 10 µM (inconclusive)
